Experimental findings from US20230167073A1 (Teijin Pharma Limited, priority 2020, published 2023) are described below.

A value given as a limit tells only on which side of the number the result lay.

One assay has as its target T1, Human TRPC6 (Homo sapiens, UniProt Q9Y210).
T1 construct: expressed in transfected cells
T1 sequence (Q9Y210 1-931): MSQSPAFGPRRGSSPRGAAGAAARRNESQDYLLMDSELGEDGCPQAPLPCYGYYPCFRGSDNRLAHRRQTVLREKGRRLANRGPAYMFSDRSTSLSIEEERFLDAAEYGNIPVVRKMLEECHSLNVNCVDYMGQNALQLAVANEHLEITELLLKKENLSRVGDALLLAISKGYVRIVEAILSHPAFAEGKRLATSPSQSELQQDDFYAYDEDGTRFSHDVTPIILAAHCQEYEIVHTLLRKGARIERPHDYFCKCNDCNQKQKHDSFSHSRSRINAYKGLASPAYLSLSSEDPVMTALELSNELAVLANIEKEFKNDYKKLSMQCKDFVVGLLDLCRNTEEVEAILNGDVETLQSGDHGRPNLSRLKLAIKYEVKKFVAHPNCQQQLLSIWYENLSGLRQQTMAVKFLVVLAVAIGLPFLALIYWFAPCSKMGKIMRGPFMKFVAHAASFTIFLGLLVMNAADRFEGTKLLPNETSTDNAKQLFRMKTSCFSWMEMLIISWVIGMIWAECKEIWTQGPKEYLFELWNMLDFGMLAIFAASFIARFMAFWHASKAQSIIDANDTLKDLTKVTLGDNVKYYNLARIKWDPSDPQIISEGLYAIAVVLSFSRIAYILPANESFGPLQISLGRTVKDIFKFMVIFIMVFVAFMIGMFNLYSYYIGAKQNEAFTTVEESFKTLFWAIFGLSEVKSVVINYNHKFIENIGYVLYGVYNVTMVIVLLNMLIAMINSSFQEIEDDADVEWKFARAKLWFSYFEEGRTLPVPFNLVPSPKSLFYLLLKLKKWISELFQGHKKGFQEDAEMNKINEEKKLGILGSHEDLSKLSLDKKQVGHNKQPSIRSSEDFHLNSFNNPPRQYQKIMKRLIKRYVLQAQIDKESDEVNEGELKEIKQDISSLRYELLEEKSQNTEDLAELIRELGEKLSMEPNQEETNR
In words: Evaluation of TRPC6 channel inhibitory activity (1), FLIPR Calcium 5 Assay Kit, OAG stimulation (Compound Nos. 1-1293).
Details: not given
It is filed as cell-based. A digest of the protocol: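 The FLIPR signal is maximum fluorescence after 30 μM OAG minus minimum before compound, measured in a human TRPC6 stable line loaded with Calcium 5 dye. Compounds were preincubated 20 min. pIC50 came from four-parameter logistic fitting of inhibition rates and is given as symbol ranges.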
As to `Cc1nc(Oc2cc(C#N)ccc2-c2ccc(CC3(N)COC3)cn2)cc(N2C3CCC2CC3)n1` [Compound No. 670, 4-[5-[(3-Aminooxetan-3-yl)methyl]pyridin-2-yl]-3-[6-(7-azabicyclo[2.2.1]heptan-7-yl)-2-methylpyrimidin-4-yl]oxybenzonitrile], the IC50 was less than 10 nM.

Still in this assay, the particulars now being: Human TRPC6 stably-expressing cells, OAG 30 μM, FLIPR Calcium 5 Assay Kit; read-out: Inhibitory activity (pIC50 class) (converted).
As to `CCc1cc(Oc2cc(C#N)ccc2-c2ccc(CN)cn2)n(C)n1` [compound 326, 4-[5-(aminomethyl)pyridin-2-yl]-3-(5-ethyl-2-methylpyrazol-3-yl)oxybenzonitrile], the IC50 is less than 10 nM.
For `Cc1cc(Oc2cc(C#N)ccc2-c2cc(CCN)ccn2)cc(N2CCOCC2)n1` [compound 638, 4-[4-(2-aminoethyl)pyridin-2-yl]-3-(2-methyl-6-morpholin-4-ylpyridin-4-yl)oxybenzonitrile], the IC50 is 10 to 1000 nM.
On the same count and under the same terms, under `Cc1cc(Oc2cc(C#N)ccc2-c2ccc(CN3CCOCC3)cn2)cc(N2CCOCC2)n1` [compound 425, 3-(2-methyl-6-morpholin-4-ylpyridin-4-yl)oxy-4-[5-(morpholin-4-ylmethyl)pyridin-2-yl]benzonitrile] stands greater than 1000 nM; under `COc1cccnc1-c1cc(Oc2cc(C#N)ccc2-c2ccc([C@H](O)CN)cn2)cc(C)n1` [compound 513, 4-[5-[(1S)-2-amino-1-hydroxyethyl]pyridin-2-yl]-3-[2-(3-methoxypyridin-2-yl)-6-methylpyridin-4-yl]oxybenzonitrile], 10 to 1000 nM; under `Cc1cc(Oc2cc(C#N)ccc2-c2ncc(CCN)cn2)cc(N2CC3CCC(C2)O3)n1` [compound 454, 4-[5-(2-aminoethyl)pyrimidin-2-yl]-3-[2-methyl-6-(8-oxa-3-azabicyclo[3.2.1]octan-3-yl)pyridin-4-yl]oxybenzonitrile], less than 10 nM.
As for `CN(C)c1cc(Oc2cc(C#N)ccc2-c2ncc([C@@H](F)CN)cn2)n(C)n1` [compound 906, 4-[5-[(1R)-2-amino-1-fluoroethyl]pyrimidin-2-yl]-3-[5-(dimethylamino)-2-methylpyrazol-3-yl]oxybenzonitrile], the IC50 is less than 10 nM.
Take `CCOC(=O)c1cc(Oc2cc(C#N)ccc2-c2ccc(CCN)cn2)n(C)n1` [compound 309, ethyl 5-[2-[5-(2-aminoethyl)pyridin-2-yl]-5-cyanophenoxy]-1-methylpyrazole-3-carboxylate]: the IC50 is 10 to 1000 nM.
The same measure, in the same setting: to `Cn1nc(C2CC2)cc1Oc1cc(C#N)ccc1-c1ncc([C@@H](O)CN)cn1` [compound 372, 4-[5-[(1R)-2-amino-1-hydroxyethyl]pyrimidin-2-yl]-3-(5-cyclopropyl-2-methylpyrazol-3-yl)oxybenzonitrile] belongs less than 10 nM; to `Cc1nc(C(F)F)cn1Cc1cc(C#N)ccc1-c1ncc(CCN)cn1` [compound 1176, 4-[5-(2-aminoethyl)pyrimidin-2-yl]-3-[[4-(difluoromethyl)-2-methylimidazol-1-yl]methyl]benzonitrile], 10 to 1000 nM.
Turning to `COc1cc(-c2ccc(C#N)cc2Oc2cc(N3CCOCC3)nc(C)n2)ccc1C(O)CN` (centres unmarked) [Compound 156, 4-[4-(2-amino-1-hydroxyethyl)-3-methoxyphenyl]-3-(2-methyl-6-morpholin-4-ylpyrimidin-4-yl)oxybenzonitrile], the IC50 is 10 to 1000 nM.
For `Cn1nc(C2CC2)cc1Oc1cc(C#N)ccc1-c1cnc(NCCN)nc1` [compound 431, 4-[2-(2-aminoethylamino)pyrimidin-5-yl]-3-(5-cyclopropyl-2-methylpyrazol-3-yl)oxybenzonitrile], the IC50 is 10 to 1000 nM.
Same read-out and setting: to `Cc1nn(-c2ccccn2)cc1Cc1cc(C#N)ccc1-c1ccc(CCN)cn1` [compound 1203, 4-[5-(2-aminoethyl)pyridin-2-yl]-3-[(3-methyl-1-pyridin-2-ylpyrazol-4-yl)methyl]benzonitrile] belongs less than 10 nM; to `Cc1cc(Oc2cc(C#N)ccc2-c2ccc(N3CC[C@@H](N)C3=O)cn2)cc(N2CCOCC2)n1` [compound 569, 4-[5-[(3R)-3-amino-2-oxopyrrolidin-1-yl]pyridin-2-yl]-3-(2-methyl-6-morpholin-4-ylpyridin-4-yl)oxybenzonitrile], greater than 1000 nM.
The same measure, in the same setting: under `Cn1nc(C(F)(F)C(F)(F)F)cc1Oc1cc(C#N)ccc1-c1ncc(CCN)cn1` [compound 376, 4-[5-(2-aminoethyl)pyrimidin-2-yl]-3-[2-methyl-5-(1,1,2,2,2-pentafluoroethyl)pyrazol-3-yl]oxybenzonitrile] stands less than 10 nM.
For `N#Cc1ccc(-c2ccc(C(O)CN)cc2)c(Oc2cnnc(N3CCOCC3)c2)c1` (centres unmarked) [Compound 51, 4-[4-(2-amino-1-hydroxyethyl)phenyl]-3-(6-morpholin-4-ylpyridazin-4-yl)oxybenzonitrile], the IC50 is greater than 1000 nM.
The same measure, in the same setting: to `Cn1nc(C2CC2)cc1Oc1cc(F)ccc1-c1ncc(CN)cn1` [compound 1015, [2-[2-(5-cyclopropyl-2-methylpyrazol-3-yl)oxy-4-fluorophenyl]pyrimidin-5-yl]methanamine] belongs 10 to 1000 nM.
Same read-out and setting: to `CCCCc1cc(Oc2cc(C#N)ccc2-c2ccc(C(O)CN)cn2)n(C)n1` (centres unmarked) [compound 318, 4-[5-(2-amino-1-hydroxyethyl)pyridin-2-yl]-3-(5-butyl-2-methylpyrazol-3-yl)oxybenzonitrile] belongs less than 10 nM; to `Cc1cc(Oc2cc(C#N)ccc2-c2ccc(CCN)cn2)cc(N2CCOCC2)n1` [Compound 173, 4-[5-(2-aminoethyl)pyridin-2-yl]-3-(2-methyl-6-morpholin-4-ylpyridin-4-yl)oxybenzonitrile], less than 10 nM.
Still for that read-out and setting: under `N#Cc1ccc(-c2ccc(CN)cn2)c(Oc2cnnc(C3CC3)c2)c1` [compound 695, 4-[5-(aminomethyl)pyridin-2-yl]-3-(6-cyclopropylpyridazin-4-yl)oxybenzonitrile] stands less than 10 nM; under `N#Cc1ccc(-n2cc(CCN)cn2)c(Sc2cnnc(N3CCCC3)c2)c1` [compound 1247, 4-[4-(2-aminoethyl)pyrazol-1-yl]-3-(6-pyrrolidin-1-ylpyridazin-4-yl)sulfanylbenzonitrile], 10 to 1000 nM.
For `Cn1nc(-c2ccccc2)cc1Oc1cc(C#N)ccc1-c1ccc(CN)cn1` [Compound 289, 4-[5-(aminomethyl)pyridin-2-yl]-3-(2-methyl-5-phenylpyrazol-3-yl)oxybenzonitrile], the IC50 was less than 10 nM.
On the same count and under the same terms, under `NCCc1cnc(-c2ccc(F)cc2C(=O)c2cnn(CC3CC3)c2)nc1` [compound 1101, [2-[5-(2-aminoethyl)pyrimidin-2-yl]-5-fluorophenyl]-[1-(cyclopropylmethyl)pyrazol-4-yl]methanone] stands 10 to 1000 nM; under `N#Cc1ccc(-c2ncc(CN)cn2)c(Cn2cc(C3CC3)nn2)c1` [compound 1191, 4-[5-(aminomethyl)pyrimidin-2-yl]-3-[(4-cyclopropyltriazol-1-yl)methyl]benzonitrile], 10 to 1000 nM; under `Cc1nn(CC(C)C)cc1Cc1cc(F)ccc1-c1ncc(CCN)cn1` [compound 1224, 2-[2-[4-fluoro-2-[[3-methyl-1-(2-methylpropyl)pyrazol-4-yl]methyl]phenyl]pyrimidin-5-yl]ethanamine], 10 to 1000 nM.
Same read-out and setting: under `Cc1nc(Oc2cc(C#N)ccc2-c2ccc(CCN)cc2)cc(-c2ccn(C)c2)n1` [Compound 29, 4-[4-(2-aminoethyl)phenyl]-3-[2-methyl-6-(1-methylpyrrol-3-yl)pyrimidin-4-yl]oxybenzonitrile] stands 10 to 1000 nM.
